Results taken from patent publication US9365576B2, “Pyrrolopyrrolidinone compounds” (Novartis AG, priority 2012, dated 2016).

These compounds were tested against human MDM2 protein (amino acids 2-188) (Homo sapiens (Human), UniProt Q00987) (assay: TR-FRET assay, p53-MDM2 Assay 2 (modified)). Details: TR-FRET; 0.1 nM MDM2, 0.1 nM Europium labeled streptavidin, Tecan genios Pro reader; read-out: IC50 p53-MDM2 Assay 2.
Format: binding
Protocol: The inhibition of p53-MDM2 and p53-MDM4 interactions is measured by time resolved fluorescence energy transfer (TR-FRET). Fluorescence energy transfer (or Foerster resonance energy transfer) describes an energy transfer between donor and acceptor fluorescent molecules. For this assay, human MDM2 protein (amino acids 2-188) and human MDM4 protein (amino acids 2-185), tagged with a C-terminal biotin moiety, are used in combination with a Europium labeled streptavidin (Perkin Elmer, Inc., Waltham, Mass., USA) serving as the donor fluorophore. The p53 derived, Cy5 labeled peptide Cy5-[…] (p53 aa18-26) is the energy acceptor. Upon excitation of the donor molecule at 340 nm, binding interaction between MDM2 or MDM4 and the p53 peptide induces energy transfer and enhanced response at the acceptor emission wavelength at 665 nm. […] The ratiometric FRET assay readout is calculated from the raw data of the two distinct fluorescence signals measured in time resolved mode (fluorescence 665 nm/fluorescence 620 nm×1000).
After addition of 1.25 nM MDM2-biotinylated or 2.5 nM MDM4-biotinylated (internal preparations), and 0.625 nM Europium labeled streptavidin (Perkin Elmer), the solution is pre-incubated for 15 minutes at room temperature, then 10 nM Cy5-p53 peptide (internal preparation) is added before an incubation at room temperature for 15 minutes prior to reading the plate. For measurement of samples, a Victor II microplate reader (Perkin Elmer) is used with the following settings: Excitation 340 nm, Emission Donor 620 nm and Emission Acceptor 665 nm. IC50 values are calculated by curve fitting using XLfit. If not specified, reagents are purchased from Sigma-Aldrich Chemie GmBH, Buchs, Switzerland.

Chain of human MDM2 protein (amino acids 2-188) (Q00987 2-188): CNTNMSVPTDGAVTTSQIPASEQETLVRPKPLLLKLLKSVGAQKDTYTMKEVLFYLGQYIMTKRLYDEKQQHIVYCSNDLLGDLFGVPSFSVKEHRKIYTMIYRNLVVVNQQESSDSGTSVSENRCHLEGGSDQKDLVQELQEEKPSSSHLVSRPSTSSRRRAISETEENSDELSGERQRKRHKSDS

IC50	SMILES
0.225 nM	COc1nc(N(C)C)ncc1-c1cc2c(n1C(C)C)C(c1ccc(Cl)cc1)N(c1cc(Cl)ccc1C)C2=O (stereo not drawn) [Example 27, 5-(5-Chloro-2-methyl-phenyl)-6-(4-chloro-phenyl)-2-(2-dimethylamino-4-methoxy-pyrimidin-5-yl)-1-isopropyl-5,6-dihydro-1H-pyrrolo[3,4-b]pyrrol-4-one]
0.106 nM	COc1ccc(C(=O)N2CCOCC2)cc1-c1cc2c(n1C(C)C)C(c1ccc(Cl)cc1)N(c1cc(Cl)ccc1C)C2=O (stereo not drawn) [Example 28, 5-(5-Chloro-2-methyl-phenyl)-6-(4-chloro-phenyl)-1-isopropyl-2-[2-methoxy-5-(morpholine-4-carbonyl)-phenyl]-5,6-dihydro-1H-pyrrolo[3,4-b]pyrrol-4-one]
0.306 nM	Cc1ccc(Cl)cc1N1C(=O)c2cc(-c3ccccc3O)n(C(C)C)c2C1c1ccc(Cl)cc1 (stereo not drawn) [Example 29, 5-(5-Chloro-2-methyl-phenyl)-6-(4-chloro-phenyl)-2-(2-hydroxy-phenyl)-1-isopropyl-5,6-dihydro-1H-pyrrolo[3,4-b]pyrrol-4-one]
0.376 nM	COc1ccccc1-c1cc2c(n1C(C)C)C(c1ccc(Cl)cc1C)N(c1cc(Cl)ccc1C)C2=O (stereo not drawn) [Example 30, 5-(5-Chloro-2-methyl-phenyl)-6-(4-chloro-2-methyl-phenyl)-1-isopropyl-2-(2-methoxy-phenyl)-5,6-dihydro-1H-pyrrolo[3,4-b]pyrrol-4-one]
0.184 nM	CNC(=O)c1ccc(OC)c(-c2cc3c(n2C(C)C)C(c2ccc(Cl)cc2C)N(c2cc(Cl)ccc2C)C3=O)c1 (stereo not drawn) [Example 31, 3-[5-(5-Chloro-2-methyl-phenyl)-6-(4-chloro-2-methyl-phenyl)-1-isopropyl-4-oxo-1,4,5,6-tetrahydro-pyrrolo[3,4-b]pyrrol-2-yl]-4-methoxy-N-methyl-benzamide]
44.6 nM	CNC(=O)c1ccc(OC)c(-c2cc3c(n2C(C)C)[C@@H](c2ccc(Cl)cc2C)N(c2cc(Cl)ccc2C)C3=O)c1 [Example 33, 3-[(R)-5-(5-Chloro-2-methyl-phenyl)-6-(4-chloro-2-methyl-phenyl)-1-isopropyl-4-oxo-1,4,5,6-tetrahydro-pyrrolo[3,4-b]pyrrol-2-yl]-4-methoxy-N-methyl-benzamide]
0.188 nM	COc1ccc(-c2nnn[nH]2)cc1-c1cc2c(n1C(C)C)C(c1ccc(Cl)cc1)N(c1cc(Cl)ccc1C)C2=O (stereo not drawn) [Example 34, 5-(5-Chloro-2-methyl-phenyl)-6-(4-chloro-phenyl)-1-isopropyl-2-[2-methoxy-5-(1H-tetrazol-5-yl)-phenyl]-5,6-dihydro-1H-pyrrolo[3,4-b]pyrrol-4-one]
0.169 nM	COc1ccc(C(=O)O)cc1-c1cc2c(n1C(C)C)C(c1ccc(Cl)cc1)N(c1cc(Cl)ccc1C)C2=O (stereo not drawn) [Example 35, 3-[5-(5-Chloro-2-methyl-phenyl)-6-(4-chloro-phenyl)-1-isopropyl-4-oxo-1,4,5,6-tetrahydro-pyrrolo[3,4-b]pyrrol-2-yl]-4-methoxy-benzoic acid]
0.115 nM	COc1ccc(C(=O)NCCS(C)(=O)=O)cc1-c1cc2c(n1C(C)C)C(c1ccc(Cl)cc1)N(c1cc(Cl)ccc1C)C2=O (stereo not drawn) [Example 36, 3-[5-(5-Chloro-2-methyl-phenyl)-6-(4-chloro-phenyl)-1-isopropyl-4-oxo-1,4,5,6-tetrahydro-pyrrolo[3,4-b]pyrrol-2-yl]-N-(2-methanesulfonyl-ethyl)-4-methoxy-benzamide]
0.444 nM	COc1ccc(-c2cc3c(n2C(C)C)C(c2ccc(Cl)cc2)N(c2cc(Cl)ccc2C)C3=O)c(OC)c1 (stereo not drawn) [Example 38, 5-(5-Chloro-2-methyl-phenyl)-6-(4-chloro-phenyl)-2-(2,4-dimethoxy-phenyl)-1-isopropyl-5,6-dihydro-1H-pyrrolo[3,4-b]pyrrol-4-one]
0.556 nM	COc1nc(N)ncc1-c1cc2c(n1C(C)C)C(c1ccc(C#N)cc1)N(c1ccc(F)c(Cl)c1)C2=O (stereo not drawn) [Example 39, 4-[2-(2-Amino-4-methoxy-pyrimidin-5-yl)-5-(3-chloro-4-fluoro-phenyl)-1-isopropyl-4-oxo-1,4,5,6-tetrahydro-pyrrolo[3,4-b]pyrrol-6-yl]-benzonitrile]
0.478 nM	COc1ncc(-c2cc3c(n2C(C)C)C(c2ccc(C#N)cc2)N(c2ccc(F)c(Cl)c2)C3=O)c(OC)n1 (stereo not drawn) [Example 40, 4-[5-(3-Chloro-4-fluoro-phenyl)-2-(2,4-dimethoxy-pyrimidin-5-yl)-1-isopropyl-4-oxo-1,4,5,6-tetrahydro-pyrrolo[3,4-b]pyrrol-6-yl]-benzonitrile]
0.349 nM	COc1nc(N)ncc1-c1cc2c(n1C(C)C)C(c1ccc(C#N)cc1)N(c1cccc(Cl)c1F)C2=O (stereo not drawn) [Example 41, 4-[2-(2-Amino-4-methoxy-pyrimidin-5-yl)-5-(3-chloro-2-fluoro-phenyl)-1-isopropyl-4-oxo-1,4,5,6-tetrahydro-pyrrolo[3,4-b]pyrrol-6-yl]-benzonitrile]
0.246 nM	COc1ncc(-c2cc3c(n2C(C)C)C(c2ccc(C#N)cc2)N(c2cccc(Cl)c2F)C3=O)c(OC)n1 (stereo not drawn) [Example 42, 4-[5-(3-Chloro-2-fluoro-phenyl)-2-(2,4-dimethoxy-pyrimidin-5-yl)-1-isopropyl-4-oxo-1,4,5,6-tetrahydro-pyrrolo[3,4-b]pyrrol-6-yl]-benzonitrile]
0.401 nM	COc1nc(N)ncc1-c1cc2c(n1C(C)C)C(c1ccc(C#N)cc1)N(c1cc(Cl)ccc1C)C2=O (stereo not drawn) [Example 43]
0.167 nM	COc1ncc(-c2cc3c(n2C(C)C)C(c2ccc(C#N)cc2)N(c2cc(Cl)ccc2C)C3=O)c(OC)n1 (stereo not drawn) [Example 44, 4-[5-(5-Chloro-2-methyl-phenyl)-2-(2,4-dimethoxy-pyrimidin-5-yl)-1-isopropyl-4-oxo-1,4,5,6-tetrahydro-pyrrolo[3,4-b]pyrrol-6-yl]-benzonitrile]
87.6 nM	CCn1c(-c2cnc(OC)nc2OC)cc2c1C(c1ccc(Cl)cc1)N(c1cc(Cl)ccc1C)C2=O (stereo not drawn) [Example 45, 5-(5-Chloro-2-methyl-phenyl)-6-(4-chloro-phenyl)-2-(2,4-dimethoxy-pyrimidin-5-yl)-1-ethyl-5,6-dihydro-1H-pyrrolo[3,4-b]pyrrol-4-one]
0.203 nM	COc1ccccc1-c1cc2c(n1C(C)C)C(c1ccc(Cl)cc1)N(c1cc(Cl)c(=O)n(C)c1)C2=O (stereo not drawn) [Example 46, 5-(5-Chloro-1-methyl-6-oxo-1,6-dihydro-pyridin-3-yl)-6-(4-chloro-phenyl)-1-isopropyl-2-(2-methoxy-phenyl)-5,6-dihydro-1H-pyrrolo[3,4-b]pyrrol-4-one]
0.15 nM	COc1ccc(C(=O)N2CCOCC2)cc1-c1cc2c(n1C(C)C)C(c1ccc(Cl)cc1)N(c1cc(Cl)c(=O)n(C)c1)C2=O (stereo not drawn) [Example 47, 5-(5-Chloro-1-methyl-6-oxo-1,6-dihydro-pyridin-3-yl)-6-(4-chloro-phenyl)-1-isopropyl-2-[2-methoxy-5-(morpholine-4-carbonyl)-phenyl]-5,6-dihydro-1H-pyrrolo[3,4-B]pyrrol-4-one]
0.188 nM	COc1ncc(-c2cc3c(n2C(C)C)C(c2ccc(Cl)cc2)N(c2cc(Cl)c(=O)n(C)c2)C3=O)c(OC)n1 (stereo not drawn) [Example 48, 5-(5-Chloro-1-methyl-6-oxo-1,6-dihydro-pyridin-3-yl)-6-(4-chloro-phenyl)-2-(2,4-dimethoxy-pyrimidin-5-yl)-1-isopropyl-5,6-dihydro-1H-pyrrolo[3,4-b]pyrrol-4-one]
0.137 nM	CNC(=O)c1ccc(OC)c(-c2cc3c(n2C(C)C)C(c2ccc(Cl)cc2)N(c2cc(Cl)c(=O)n(C)c2)C3=O)c1 (stereo not drawn) [Example 49, 3-[5-(5-Chloro-1-methyl-6-oxo-1,6-dihydro-pyridin-3-yl)-6-(4-chloro-phenyl)-1-isopropyl-4-oxo-1,4,5,6-tetrahydro-pyrrolo[3,4-b]pyrrol-2-yl]-4-methoxy-N-methyl-benzamide]
0.234 nM	COc1ccc(C(=O)O)cc1-c1cc2c(n1C(C)C)C(c1ccc(Cl)cc1)N(c1cc(Cl)c(=O)n(C)c1)C2=O (stereo not drawn) [Example 50, 3-[5-(5-Chloro-1-methyl-6-oxo-1,6-dihydro-pyridin-3-yl)-6-(4-chloro-phenyl)-1-isopropyl-4-oxo-1,4,5,6-tetrahydro-pyrrolo[3,4S-b]pyrrol-2-yl]-4-methoxy-benzoic acid]
0.461 nM	COc1nc(N)ncc1-c1cc2c(n1C(C)C)C(c1ccc(Cl)cc1)N(c1cc(Cl)c(=O)n(C)c1)C2=O (stereo not drawn) [Example 51, 2-(2-Amino-4-methoxy-pyrimidin-5-yl)-5-(5-chloro-1-methyl-6-oxo-1,6-dihydro-pyridin-3-yl)-6-(4-chloro-phenyl)-1-isopropyl-5,6-dihydro-1H-pyrrolo[3,4-b]pyrrol-4-one]
0.137 nM	COc1nc(N(C)C)ncc1-c1cc2c(n1C(C)C)C(c1ccc(Cl)cc1)N(c1cc(Cl)c(=O)n(C)c1)C2=O (stereo not drawn) [Example 52, 5-(5-Chloro-1-methyl-6-oxo-1,6-dihydro-pyridin-3-yl)-6-(4-chloro-phenyl)-2-(2-dimethylamino-4-methoxy-pyrimidin-5-yl)-1-isopropyl-5,6-dihydro-1H-pyrrolo[3,4-b]pyrrol-4-one]
